# Assay: in vitro
# Conditions: human, hela cells, % viability
row,Compound,"viability at 28.5 h, 10 µM [%]"
1,Cc1nn(CC(=O)N(C)C2CCCCC2)c(=O)c2cc3occc3n12 [CBK283653],92.4
2,CCc1nn(CC(=O)N(CC)CC)c(=O)c2cc3occc3n12 [CBK283656],91
3,CCc1nn(CC(=O)N(C(C)C)C(C)C)c(=O)c2cc3occc3n12 [CBK283658],89.3
4,COc1cccc(C2(NC(=O)c3c(C)noc3C)CCCC2)c1 [CBK283659],98.1
5,COc1cccc(C2(NC(=O)CCn3cccn3)CCCC2)c1 [CBK283660],94.5
6,COc1ccc(C2(NC(=O)Cn3ccnc3)CCCCC2)cc1 [CBK283661],84
7,O=C(NCCc1ccccc1)c1ncoc1-c1cccs1 [CBK283662],91.8
8,COc1ccc(CCNC(=O)c2ncoc2-c2cccs2)cc1 [CBK283663],103
9,Cc1cc(C)n(CCC(=O)N2CCCC2c2nc3ccccc3[nH]2)n1 (stereo not drawn) [CBK283664],106
10,O=C(Cn1ncc2cccn2c1=O)OC1CCCCC1 [CBK283667],91.8
11,O=C(c1c(F)cccc1F)N1CCC(O)(c2ccccn2)CC1 [CBK283670],105
12,O=C(c1ccc(F)cc1F)N1CCC(O)(c2ccccn2)CC1 [CBK283671],107
13,O=C(Cn1ncc2cccn2c1=O)Nc1ccc(F)cc1 [CBK283672],107
14,CCc1nn(CC(=O)N2CCC(C)CC2)c(=O)c2cc3occc3n12 [CBK283675],76.4
15,CCc1nn(CC(=O)N2CCCCC2C)c(=O)c2cc3occc3n12 (stereo not drawn) [CBK283676],67.5
16,c1coc(-c2nc3cnccn3c2NC2CCCC2)c1 [CBK283678],90.6
17,CC(C)n1cc(C(=O)N2CCCCC2c2nc3ccccc3[nH]2)cn1 (stereo not drawn) [CBK283679],102
18,CC1CCCC(C)N1C(=O)Cn1ncc2cccn2c1=O (stereo not drawn) [CBK283680],101
19,Fc1ccccc1-c1nc2cnccn2c1NCc1ccco1 [CBK283681],84.9
20,O=C(CN1CCC(c2ccc(F)cc2)CC1)N1CCOCC1 [CBK283683],88.4
21,O=C1CC2(CCN(C(=O)C3CCCC3)CC2)Oc2ccc(F)cc21 [CBK283686],80.2
22,Cc1oc(C2CC2)cc1C(=O)N1CCn2c(nnc2C2CC2)C1 [CBK283687],94.9

row,Compound,"viability at 28.5 h, 10 µM [%]"
1,O=C(c1cccnc1)C1CCN(C(=O)Cc2ccccc2Cl)CC1 [CBK283690],90.3
2,O=c1oc(-c2ccncc2)nn1Cc1ccccc1F [CBK283692],89.1
3,Cc1ccc(CNc2c(-c3ccco3)nc3cnccn23)cc1 [CBK283693],89.3
4,Fc1ccc(CNc2c(-c3ccco3)nc3cnccn23)cc1 [CBK283694],92
5,CC(C)n1c(=O)n(CC(=O)N(C)C2CCCCC2)c2cccnc21 [CBK283695],95.6
6,CC(C)n1c(=O)n(CC(=O)NC2CCCCC2)c2cccnc21 [CBK283696],99
7,CC1CCCCC1NC(=O)Cn1c(=O)n(C(C)C)c2ncccc21 (stereo not drawn) [CBK283697],88.8
8,CC(C)n1c(=O)n(CC(=O)NCc2cccs2)c2cccnc21 [CBK283699],88.6
9,CC(C)n1c(=O)n(CC(=O)NC2CCCC2)c2cccnc21 [CBK283700],89.2
10,O=C(Cn1ncc2cccn2c1=O)Nc1cccc(F)c1 [CBK283702],89.8
11,O=C(NCCn1nc(-c2ccco2)ccc1=O)c1cccs1 [CBK283704],92.5
12,O=C(NCCn1nc(-c2ccco2)ccc1=O)C1CCCC1 [CBK283707],92
13,COc1ccc([C@@H]2CCN(C(=O)Cc3ccc(F)cc3)C[C@H]2O)cc1 [CBK283709],88.8
14,O=C(CCn1cnc2ccccc21)N1CC[C@@H](c2ccccc2)[C@H](O)C1 [CBK283712],102
15,O=C(Cc1ccc(F)cc1)N1CC[C@@H](c2ccccc2)[C@H](O)C1 [CBK283714],84.5
16,O=C(c1cc(F)cc(F)c1)N1CC[C@@H](c2ccccc2)[C@H](O)C1 [CBK283715],79.1
17,O=C(c1cccc2ncccc12)N1CC[C@@H](c2ccccc2)[C@H](O)C1 [CBK283716],84.3
18,O=C(c1csc2c1CCCC2)N1CCc2c(nc[nH]c2=O)C1 [CBK283717],77.7
19,CCn1cc(C(=O)N2C[C@H](C(=O)OC)[C@@H](c3ccc(F)cc3)C2)cn1 [CBK283719],89.7
20,COC(=O)[C@H]1CN(C(=O)c2cnn(C)c2C)C[C@@H]1c1ccc(F)cc1 [CBK283721],84.5
21,O=C(O)[C@H]1CN(C(=O)CCc2ccco2)C[C@@H]1c1ccc(F)cc1 [CBK283722],86.5
22,Cn1ccnc1C(NC(=O)Cc1ccc(O)cc1)c1ccccc1 (stereo not drawn) [CBK283723],87.9

row,Compound,"viability at 28.5 h, 10 µM [%]"
1,Cc1nc2c(-c3cccs3)c(C)nn2c(O)c1C [CBK283728],99.9
2,CCc1cc(O)n2nc(C)c(-c3cccs3)c2n1 [CBK283730],99.3
3,COC(=O)[C@H]1CN(C(=O)c2cccs2)C[C@@H]1c1ccc(F)cc1 [CBK283732],92
4,O=C(NCCn1nc(-c2ccco2)ccc1=O)c1ccccc1F [CBK283742],92.5
5,COC(=O)c1ccc(/C=C/C2=CCN(C)CC2)cc1 [CBK283744],94.5
6,O=C(c1cccnc1)C1CCN(C(=O)c2cc(F)cc(F)c2)CC1 [CBK283746],102
7,COc1cccc(C2(NC(=O)CCn3nc(C)cc3C)CCCC2)c1 [CBK283749],90.7
8,Cc1nc2c(c(=O)[nH]1)CCN(C(=O)c1cc3c(s1)CCC3)C2 [CBK283751],105
9,Cc1nc2c(c(=O)[nH]1)CCN(C(=O)c1oc3ccccc3c1C)C2 [CBK283752],111
10,Cc1nc2c(c(=O)[nH]1)CCN(C(=O)c1cc(C3CC3)oc1C)C2 [CBK283753],92.5
11,Cc1ccc(C2(C(=O)N3CCC(O)(c4ccccn4)CC3)CC2)cc1 [CBK283754],96.4
12,O=C(Cc1ccc(F)cc1Cl)N1CCC(O)(c2ccccn2)CC1 [CBK283755],98.1
13,COc1ccc([C@@H]2CCN(C(=O)c3cc(F)cc(F)c3)C[C@H]2O)cc1 [CBK283757],97
14,CC(C)n1c(=O)n(CC(=O)NCc2ccccc2)c2cccnc21 [CBK283758],99.8
15,O=C(NC1CC2(CCCCC2)Oc2ccccc21)C1CCOC1 (stereo not drawn) [CBK283760],105
16,O=C(c1cncc(O)c1)N1C2CCC1CC(c1ccc(F)cc1)C2 (stereo not drawn) [CBK283764],96.4
17,O=C(CCc1ccco1)N1CCCC1c1nc2ccccc2[nH]1 (stereo not drawn) [CBK283767],104
18,Cc1cc(C(C)(C)C)oc1C(=O)N1CCn2c(nnc2C2CC2)C1 [CBK283771],93.9
19,O=C(c1cc(F)cc(F)c1)N1CCn2c(nnc2C2CC2)C1 [CBK283772],95.9
20,O=C(Cc1ccc(F)cc1Cl)N1CCn2c(nnc2C2CC2)C1 [CBK283773],87.8
21,CCn1cc(C(=O)N2CCCC2c2nc3ccccc3[nH]2)cn1 (stereo not drawn) [CBK283776],109
22,Cn1ccnc1C(NC(=O)N1CCOCC1)c1ccc(F)c(F)c1 (stereo not drawn) [CBK283781],87.4

# Source: publication PMC12040169 (PLOS Biology, 2025)
